Laboratory results reported in article PMC9597602, “Metal Complexes as Antifungals? From a Crowd-Sourced Compound Library to the First In Vivo Experiments” (JACS Au, 2022).
Values joined by “and” are separate entries in the source; they are usually repeats but may differ in a detail not shown here. Identical values can stand only once. Like-named read-outs stand apart in the source and are kept apart here. Starred links: 1 amine or outer side, 2 acyl side, 3 side chain; linkers in the order of their positions; H or OH if unused. Positions of bridges follow the written chain, without caps; N, C: chain ends. Non-standard residues stand in square brackets, D forms with d. Residues, ends and D or L forms follow the SMILES beside them. *: point of attachment. pTerphenylCO(4''-OnC5H11) = CCCCCOc1ccc(-c2ccc(-c3ccc(C(=O)*)cc3)cc2)cc1; Orn(4R-OH,5R-OH) = O=C([C@H](C[C@@H](O)[C@@H](O)N[*:3])N[*:1])[*:2]; hTyr(3S-OH,4S-OH) = N[C@H](C(=O)O)[C@H](O)[C@@H](O)c1ccc(O)cc1; Pro(3S-OH,4S-Me) = C[C@H]1CN[C@H](C(=O)O)[C@H]1O; Hyp = O=C(O)[C@@H]1C[C@@H](O)CN1

Tests used:
Type in all cases: cell-based
[1] = test system: Candida albicans ATCC 90028 NCCLS11; assay: Antifungal MIC assay; conditions: Candida albicans, ATCC90028, comparator antifungals, read-out: MIC* Candida albicans ATCC 90028
Description: For the fungal assays, both fungi (yeast) strains were cultured for 3 days on Yeast Extract-Peptone Dextrose (YPD; Becton Dickinson 242720) agar at 30 °C. A yeast suspension of 1 × 10^6 to 5 × 10^6 CFU/mL (as determined by OD530) was prepared from five colonies from the agar plates, subsequently diluted with Yeast Nitrogen Base media (YNB; Becton Dickinson 233520), and added to each well of the compound containing plates (384-well plates, NBS; Corning CLS3640), giving a final cell density of 2.5 × 10^3 CFU/mL and a total volume of 50 μL. Plates were covered and incubated at 35 °C for 36 h without shaking. […] […], equivalent to ″optically clear-to-slightly hazy″ or MIC score of 0–1 as per CLSI guidelines M27 Reference Method for Broth Dilution Antifungal Susceptibility Testing of Yeasts. […] Fluconazole (Sigma F8929) was used as internal control on each plate for all strains. All compounds were tested as two technical replicates in two to four independent biological assays, n = 4–8 final data.

[2] = test system: Candida auris CBS12373 KCTC 17810; assay: Antifungal MIC assay, extended panel; conditions: Candidozyma auris, comparator antifungals, read-out: MIC* Candida auris CBS12373
Description: (§1) For the fungal assays, both fungi (yeast) strains were cultured for 3 days on Yeast Extract-Peptone Dextrose (YPD; Becton Dickinson 242720) agar at 30 °C. A yeast suspension of 1 × 10^6 to 5 × 10^6 CFU/mL (as determined by OD530) was prepared from five colonies from the agar plates, subsequently diluted with Yeast Nitrogen Base media (YNB; Becton Dickinson 233520), and added to each well of the compound containing plates (384-well plates, NBS; Corning CLS3640), giving a final cell density of 2.5 × 10^3 CFU/mL and a total volume of 50 μL. Plates were covered and incubated at 35 °C for 36 h without shaking. […] MIC […] Reference Method for Broth Dilution Antifungal Susceptibility Testing of Yeasts. […] Fluconazole (Sigma F8929) was used as internal control on each plate for all strains. All compounds were tested as two technical replicates in two to four independent biological assays, n = 4–8 final data.

[3] = test system: Candida auris CBS10913 JCM 15448; assay: Antifungal MIC assay, extended panel; conditions: Candidozyma auris, comparator antifungals, read-out: MIC* Candida auris CBS10913
Description: as §1

[4] = test system: Cryptococcus neoformans H99 ATCC 208821 type strain; assay: Antifungal MIC assay; conditions: Cryptococcus neoformans
Description: (§2) For the fungal assays, both fungi (yeast) strains were cultured for 3 days on Yeast Extract-Peptone Dextrose (YPD; Becton Dickinson 242720) agar at 30 °C. A yeast suspension of 1 × 10^6 to 5 × 10^6 CFU/mL (as determined by OD530) was prepared from five colonies from the agar plates, subsequently diluted with Yeast Nitrogen Base media (YNB; Becton Dickinson 233520), and added to each well of the compound containing plates (384-well plates, NBS; Corning CLS3640), giving a final cell density of 2.5 × 10^3 CFU/mL and a total volume of 50 μL. Plates were covered and incubated at 35 °C for 36 h without shaking. […] MIC values were recorded as the lowest concentration at which the growth was inhibited by ≥80%, equivalent to ″optically clear-to-slightly hazy″ or MIC score of 0–1 as per CLSI guidelines M27 Reference Method for Broth Dilution Antifungal Susceptibility Testing of Yeasts. […] Fluconazole (Sigma F8929) was used as internal control on each plate for all strains. All compounds were tested as two technical replicates in two to four independent biological assays, n = 4–8 final data.

[5] = test system: Cryptococcus deuterogattii ATCC 32609 VGII; assay: Antifungal MIC assay, extended panel; conditions: Cryptococcus deuterogattii, ATCC32609, comparator antifungals
Description: as §2

[6] = test system: Candida tropicalis ATCC 750; assay: Antifungal MIC assay, extended panel; conditions: Candida tropicalis, ATCC750, comparator antifungals
Description: as §2

[7] = test system: Candida glabrata ATCC 90030 NCCLS 84; assay: Antifungal MIC assay, extended panel; conditions: Nakaseomyces glabratus, ATCC90030, comparator antifungals
Description: as §2

[8] = test system: Cryptococcus deuterogattii CBS7750 VGII; Serotype B; assay: Antifungal MIC assay, extended panel; conditions: Cryptococcus deuterogattii, CBS7750, comparator antifungals
Description: as §2

[9] = ≥80% inhibition, converted with MW of Table S12
[10] = ATCC208821, comparator antifungals, MIC = ≥80% inhibition, read-out: MIC* Cryptococcus neoformans ATCC 208821
[11] = ATCC208821, comparator antifungals, ≥80% inhibition, converted with MW of Table S12, read-out: MIC* Cryptococcus neoformans ATCC 208821

Structure (SMILES)	MIC ([1]; MIC = ≥80% inhibition) [µg/mL]	MIC [1, 9] [µM]	MIC ([2]; MIC = ≥80% inhibition) [µg/mL]	MIC [2, 9] [µM]	MIC ([3]; MIC = ≥80% inhibition) [µg/mL]	MIC [3, 9] [µM]	MIC ([4]; ATCC208821, read-out: MIC* Cryptococcus neoformans ATCC 208821)	MIC ([5]; MIC = ≥80% inhibition) [µg/mL]	MIC [5, 9] [µM]	MIC ([6]; MIC = ≥80% inhibition) [µg/mL]	MIC [6, 9] [µM]	MIC ([7]; MIC = ≥80% inhibition) [µg/mL]	MIC [7, 9] [µM]	MIC ([8]; MIC = ≥80% inhibition) [µg/mL]	MIC [8, 9] [µM]	MIC [4, 10] [µg/mL]	MIC [4, 11] [µM]
CCCCCOc1ccc(-c2ccc(-c3ccc(C(=O)N[C@H]4C[C@@H](O)[C@@H](O)NC(=O)[C@@H]5[C@@H](O)[C@@H](C)CN5C(=O)[C@H]([C@@H](C)O)NC(=O)[C@H]([C@H](O)[C@@H](O)c5ccc(O)cc5)NC(=O)[C@@H]5C[C@@H](O)CN5C(=O)[C@H]([C@@H](C)O)NC4=O)cc3)cc2)cc1 [Anidulafungin, reference compound] ({pTerphenylCO(4''-OnC5H11)}-[Orn(4R-OH,5R-OH)]T[Hyp][hTyr(3S-OH,4S-OH)]T[Pro(3S-OH,4S-Me)]; lactam 1-C)	0.031 to 0.125	0.027 to 0.11	0.25	0.219	0.031 to 0.125	0.027 to 0.11	0.016 µg/mL to 0.125 µg/mL and 0.014 µM to 0.11 µM	0.003 to 0.25	0.003 to 0.219	0.004 to 0.008	0.003 to 0.007	0.008	0.007	0.06 to 0.25	0.055 to 0.219	–	–
CC[C@@H]([C@H](C)O)n1ncn(-c2ccc(N3CCN(c4ccc(OC[C@@H]5CO[C@@](Cn6cncn6)(c6ccc(F)cc6F)C5)cc4)CC3)cc2)c1=O [Posaconazole, reference compound]	0.001 to 0.031	0.002 to 0.063	2	4.04	0.031 to 0.063	0.063 to 0.126	–	0.015 to 0.25	0.032 to 0.506	0.125	0.253	2	4.04	0.06 to 0.125	0.126 to 0.253	0.016 to 0.125	0.032 to 0.253
CC[C@H](C)C[C@H](C)CCCCCCCCC(=O)N[C@H]1C[C@@H](O)[C@@H](NCCN)NC(=O)[C@@H]2[C@@H](O)CCN2C(=O)[C@H]([C@H](O)CCN)NC(=O)[C@H]([C@H](O)[C@@H](O)c2ccc(O)cc2)NC(=O)[C@@H]2C[C@@H](O)CN2C(=O)[C@H]([C@@H](C)O)NC1=O [Caspofungin, reference compound]	0.391 to 1.56	0.357 to 1.43	12.5	11.4	6.25	5.72	–	0.1 to 0.63	–	1.56	1.43	6.25 to 12.5	5.72 to 11.4	0.06 to 0.1	0.029 to 0.089	0.098 to 1.56	0.089 to 1.43
